Measurements: ChEMBL document CHEMBL4715697, “Synthesis and biological activity of benzamide DNA minor groove binders” (2016)

Columns and labels:
Format in all cases: functional
Conditions in all cases: read-out: Activity
NCI-H226 = experiment: Growth inhibition of human NCI-H226 cells assessed as cell growth at 10 uM incubated for 48 hrs by sulforhodamine B assay relative to control
NCI/ADR-RES = experiment: Growth inhibition of human NCI/ADR-RES cells assessed as cell growth at 10 uM incubated for 48 hrs by sulforhodamine B assay relative to control
TK-10 = experiment: Growth inhibition of human TK-10 cells assessed as cell growth at 10 uM incubated for 48 hrs by sulforhodamine B assay relative to control
SF-539 = experiment: Growth inhibition of human SF-539 cells assessed as cell growth at 10 uM incubated for 48 hrs by sulforhodamine B assay relative to control
SW-620 = experiment: Growth inhibition of human SW-620 cells assessed as cell growth at 10 uM incubated for 48 hrs by sulforhodamine B assay relative to control
DU-145 = experiment: Growth inhibition of human DU-145 cells assessed as cell growth at 10 uM incubated for 48 hrs by sulforhodamine B assay relative to control
LOX IMVI = experiment: Growth inhibition of human LOX IMVI cells assessed as cell growth at 10 uM incubated for 48 hrs by sulforhodamine B assay relative to control
COLO 205 = experiment: Growth inhibition of human COLO 205 cells assessed as cell growth at 10 uM incubated for 48 hrs by sulforhodamine B assay relative to control
MDA-MB-231 = experiment: Growth inhibition of human MDA-MB-231 cells assessed as cell growth at 10 uM incubated for 48 hrs by sulforhodamine B assay relative to control
MCF7 = experiment: Growth inhibition of human MCF7 cells assessed as cell growth at 10 uM incubated for 48 hrs by sulforhodamine B assay relative to control
Malme-3M = experiment: Growth inhibition of human Malme-3M cells assessed as cell growth at 10 uM incubated for 48 hrs by sulforhodamine B assay relative to control
U-251 = experiment: Growth inhibition of human U-251 cells assessed as cell growth at 10 uM incubated for 48 hrs by sulforhodamine B assay relative to control
CCRF-CEM = experiment: Growth inhibition of human CCRF-CEM cells assessed as cell growth at 10 uM incubated for 48 hrs by sulforhodamine B assay relative to control
BT-549 = experiment: Growth inhibition of human BT-549 cells assessed as cell growth at 10 uM incubated for 48 hrs by sulforhodamine B assay relative to control
M14 = experiment: Growth inhibition of human M14 cells assessed as cell growth at 10 uM incubated for 48 hrs by sulforhodamine B assay relative to control
EKVX = experiment: Growth inhibition of human EKVX cells assessed as cell growth at 10 uM incubated for 48 hrs by sulforhodamine B assay relative to control
HL-60(TB) = experiment: Growth inhibition of human HL-60(TB) cells assessed as cell growth at 10 uM incubated for 48 hrs by sulforhodamine B assay relative to control
MDA-MB-435 = experiment: Growth inhibition of human MDA-MB-435 cells assessed as cell growth at 10 uM incubated for 48 hrs by sulforhodamine B assay relative to control
MDA-MB-468 = experiment: Growth inhibition of human MDA-MB-468 cells assessed as cell growth at 10 uM incubated for 48 hrs by sulforhodamine B assay relative to control
SK-MEL-28 = experiment: Growth inhibition of human SK-MEL-28 cells assessed as cell growth at 10 uM incubated for 48 hrs by sulforhodamine B assay relative to control
SK-MEL-2 = experiment: Growth inhibition of human SK-MEL-2 cells assessed as cell growth at 10 uM incubated for 48 hrs by sulforhodamine B assay relative to control
SNB-19 = experiment: Growth inhibition of human SNB-19 cells assessed as cell growth at 10 uM incubated for 48 hrs by sulforhodamine B assay relative to control
SK-OV-3 = experiment: Growth inhibition of human SK-OV-3 cells assessed as cell growth at 10 uM incubated for 48 hrs by sulforhodamine B assay relative to control
MOLT-4 = experiment: Growth inhibition of human MOLT-4 cells assessed as cell growth at 10 uM incubated for 48 hrs by sulforhodamine B assay relative to control
SK-MEL-5 = experiment: Growth inhibition of human SK-MEL-5 cells assessed as cell growth at 10 uM incubated for 48 hrs by sulforhodamine B assay relative to control
A549 = experiment: Growth inhibition of human A549/ATCC cells assessed as cell growth at 10 uM incubated for 48 hrs by sulforhodamine B assay relative to control
HCT-15 = experiment: Growth inhibition of human HCT-15 cells assessed as cell growth at 10 uM incubated for 48 hrs by sulforhodamine B assay relative to control
RPMI-8226 = experiment: Growth inhibition of human RPMI-8226 cells assessed as cell growth at 10 uM incubated for 48 hrs by sulforhodamine B assay relative to control
T47D = experiment: Growth inhibition of human T47D cells assessed as cell growth at 10 uM incubated for 48 hrs by sulforhodamine B assay relative to control
NCI-H23 = experiment: Growth inhibition of human NCI-H23 cells assessed as cell growth at 10 uM incubated for 48 hrs by sulforhodamine B assay relative to control
SF-268 = experiment: Growth inhibition of human SF-268 cells assessed as cell growth at 10 uM incubated for 48 hrs by sulforhodamine B assay relative to control
HCT-116 = experiment: Growth inhibition of human HCT-116 cells assessed as cell growth at 10 uM incubated for 48 hrs by sulforhodamine B assay relative to control
786-0 = experiment: Growth inhibition of human 786-0 cells assessed as cell growth at 10 uM incubated for 48 hrs by sulforhodamine B assay relative to control
RXF 393 = experiment: Growth inhibition of human RXF 393 cells assessed as cell growth at 10 uM incubated for 48 hrs by sulforhodamine B assay relative to control
NCI-H522 = experiment: Growth inhibition of human NCI-H522 cells assessed as cell growth at 10 uM incubated for 48 hrs by sulforhodamine B assay relative to control
OVCAR-8 = experiment: Growth inhibition of human OVCAR-8 cells assessed as cell growth at 10 uM incubated for 48 hrs by sulforhodamine B assay relative to control
IGROV-1 = experiment: Growth inhibition of human IGROV-1 cells assessed as cell growth at 10 uM incubated for 48 hrs by sulforhodamine B assay relative to control
KM12 = experiment: Growth inhibition of human KM12 cells assessed as cell growth at 10 uM incubated for 48 hrs by sulforhodamine B assay relative to control
HOP-62 = experiment: Growth inhibition of human HOP-62 cells assessed as cell growth at 10 uM incubated for 48 hrs by sulforhodamine B assay relative to control
SNB-75 = experiment: Growth inhibition of human SNB-75 cells assessed as cell growth at 10 uM incubated for 48 hrs by sulforhodamine B assay relative to control

SMILES	growth at 10 µM (NCI-H226)	growth at 10 µM (NCI/ADR-RES)	growth at 10 µM (TK-10)	growth at 10 µM (SF-539)	growth at 10 µM (SW-620)	growth at 10 µM (DU-145)	growth at 10 µM (LOX IMVI)	growth at 10 µM (COLO 205)	growth at 10 µM (MDA-MB-231)	growth at 10 µM (MCF7)	growth at 10 µM (Malme-3M)	growth at 10 µM (U-251)	growth at 10 µM (CCRF-CEM)	growth at 10 µM (BT-549)	growth at 10 µM (M14)	growth at 10 µM (EKVX)	growth at 10 µM (HL-60(TB))	growth at 10 µM (MDA-MB-435)	growth at 10 µM (MDA-MB-468)	growth at 10 µM (SK-MEL-28)	further results
CC(=O)Nc1cc(CO)cc(NC(=O)c2ccc(C(=O)NCCCN3CCOCC3)cc2)c1	95.6%	113%	91.9%	97.3%	102%	113%	101%	106%	103%	102%	106%	99.5%	94.9%	94.2%	98.9%	115%	107%	103%	96%	102%	growth at 10 µM (SK-MEL-2): 94.3%; growth at 10 µM (SNB-19): 107%; growth at 10 µM (SK-OV-3): 106%; growth at 10 µM (MOLT-4): 94.4%; growth at 10 µM (SK-MEL-5): 102%; growth at 10 µM (A549): 107%; growth at 10 µM (HCT-15): 103%; growth at 10 µM (RPMI-8226): 95.3%; growth at 10 µM (T47D): 108%; growth at 10 µM (NCI-H23): 100%; growth at 10 µM (SF-268): 109%; growth at 10 µM (HCT-116): 105%; growth at 10 µM (786-0): 101%; growth at 10 µM (RXF 393): 108%; growth at 10 µM (NCI-H522): 91.1%; growth at 10 µM (OVCAR-8): 103%; growth at 10 µM (IGROV-1): 110%; growth at 10 µM (KM12): 113%; growth at 10 µM (HOP-62): 105%; growth at 10 µM (SNB-75): 90.2%
CC(=O)Nc1cc(CCl)cc(NC(=O)c2ccc(C(=O)Nc3cccc(NC(=O)CCCN(C)C)c3)cc2)c1	93%	100%	106%	100%	107%	106%	92%	105%	106%	71%	100%	100%	114%	106%	104%	86%	101%	100%	91%	96%	growth at 10 µM (SK-MEL-2): 116%; growth at 10 µM (SNB-19): 106%; growth at 10 µM (SK-OV-3): 114%; growth at 10 µM (MOLT-4): 102%; growth at 10 µM (SK-MEL-5): 93%; growth at 10 µM (A549): 101%; growth at 10 µM (HCT-15): 93%; growth at 10 µM (RPMI-8226): 116%; growth at 10 µM (T47D): 95%; growth at 10 µM (NCI-H23): 93%; growth at 10 µM (SF-268): 101%; growth at 10 µM (HCT-116): 106%; growth at 10 µM (786-0): 107%; growth at 10 µM (RXF 393): 96%; growth at 10 µM (NCI-H522): 104%; growth at 10 µM (OVCAR-8): 98%; growth at 10 µM (IGROV-1): 116%; growth at 10 µM (KM12): 104%; growth at 10 µM (HOP-62): 106%; growth at 10 µM (SNB-75): 82%
CC(=O)Nc1cc(CO[Si](C)(C)C(C)(C)C)cc(NC(=O)c2ccc(C(=O)Nc3cccc(NC(=O)CCCN(C)C)c3)cc2)c1	85%	88%	104%	89%	99%	97%	82%	98%	99%	77%	88%	87%	109%	84%	90%	91%	81%	96%	89%	87%	growth at 10 µM (SK-MEL-2): 102%; growth at 10 µM (SNB-19): 100%; growth at 10 µM (SK-OV-3): 103%; growth at 10 µM (MOLT-4): 91%; growth at 10 µM (SK-MEL-5): 89%; growth at 10 µM (A549): 86%; growth at 10 µM (HCT-15): 85%; growth at 10 µM (RPMI-8226): 106%; growth at 10 µM (T47D): 73%; growth at 10 µM (NCI-H23): 90%; growth at 10 µM (SF-268): 94%; growth at 10 µM (HCT-116): 99%; growth at 10 µM (786-0): 95%; growth at 10 µM (RXF 393): 95%; growth at 10 µM (NCI-H522): 82%; growth at 10 µM (OVCAR-8): 93%; growth at 10 µM (IGROV-1): 90%; growth at 10 µM (KM12): 95%; growth at 10 µM (HOP-62): 92%; growth at 10 µM (SNB-75): 73%
CC(=O)Nc1cc(CO)cc(NC(=O)c2ccc(NC(=O)CCCN3CCOCC3)cc2)c1	95.6%	106%	93.1%	97.6%	103%	115%	110%	106%	102%	102%	130%	105%	87%	99.8%	103%	103%	106%	100%	97.8%	113%	growth at 10 µM (SK-MEL-2): 101%; growth at 10 µM (SNB-19): 99.4%; growth at 10 µM (SK-OV-3): 104%; growth at 10 µM (MOLT-4): 99.5%; growth at 10 µM (SK-MEL-5): 100%; growth at 10 µM (A549): 104%; growth at 10 µM (HCT-15): 103%; growth at 10 µM (RPMI-8226): 93.6%; growth at 10 µM (T47D): 98.7%; growth at 10 µM (NCI-H23): 98.3%; growth at 10 µM (SF-268): 110%; growth at 10 µM (HCT-116): 104%; growth at 10 µM (786-0): 97%; growth at 10 µM (RXF 393): 114%; growth at 10 µM (NCI-H522): 93.4%; growth at 10 µM (OVCAR-8): 105%; growth at 10 µM (IGROV-1): 126%; growth at 10 µM (KM12): 109%; growth at 10 µM (HOP-62): 101%; growth at 10 µM (SNB-75): 92.5%
CC(=O)Nc1cc(CO)cc(NC(=O)c2cccc(NC(=O)CCCN3CCOCC3)c2)c1	96.7%	107%	94%	98.9%	108%	108%	99.8%	110%	104%	105%	112%	104%	89.4%	91.7%	106%	113%	110%	103%	92.3%	115%	growth at 10 µM (SK-MEL-2): 97.8%; growth at 10 µM (SNB-19): 97.7%; growth at 10 µM (SK-OV-3): 104%; growth at 10 µM (MOLT-4): 102%; growth at 10 µM (SK-MEL-5): 104%; growth at 10 µM (A549): 101%; growth at 10 µM (HCT-15): 103%; growth at 10 µM (RPMI-8226): 92.1%; growth at 10 µM (T47D): 96%; growth at 10 µM (NCI-H23): 105%; growth at 10 µM (SF-268): 107%; growth at 10 µM (HCT-116): 98.9%; growth at 10 µM (786-0): 99.4%; growth at 10 µM (RXF 393): 105%; growth at 10 µM (NCI-H522): 93.1%; growth at 10 µM (OVCAR-8): 107%; growth at 10 µM (IGROV-1): 106%; growth at 10 µM (KM12): 135%; growth at 10 µM (HOP-62): 103%; growth at 10 µM (SNB-75): 102%
